We go through one molecule from patent US20240366523A1, “PATCH AND PRODUCTION METHOD THEREOF” (KANEKA CORPORATION, priority 2021, published 2024).

The data set in a line: Kinematic viscosity of non-volatile hydrocarbon oil. The note with it: viscosity measuring temperature 40 ° C. The class given is physicochemical. An excerpt:
The “kinematic viscosity” is a value obtained by converting a viscosity (mPa·s) measured according to “Method II Viscosity measurement by rotational viscometer (2.12 Single cylinder-type rotational viscometer (Brookfield type viscometer)” in “2.53 Viscosity Determination” of General Tests in “Japanese Pharmacopoeia 17th Edition” into a kinematic viscosity.

Turning to `CC(C)CCCC(C)CCCC(C)CCCCC(C)CCCC(C)CCCC(C)C` (stereo not shown) [SQUALANE], the Kinematic viscosity is recorded as 20.5 mm^2/s.
